{"source": "patent US20090215889A1", "about": "“Novel Use of Zinc Gluconate for Treating Hydradenitis Suppurativa” (LABCATAL, priority 2005, published 2009)", "key": {"suppurative hidradenitis [1]": {"system": "suppurative hidradenitis", "details": "cited from earlier work"}, "suppurative hidradenitis [2]": {"system": "suppurative hidradenitis", "details": "oral; open study on 80 patients; cited from earlier work"}, "[3]": {"test": "tolerance to oral zinc gluconate doses", "format": "in vivo, human", "details": "for example 90 mg/day"}, "[4]": {"details": "Vidal monograph, overdose section; cited from earlier work"}, "suppurative hidradenitis [5]": {"system": "suppurative hidradenitis", "test": "clinical observation of oral zinc gluconate in 20 patients with suppurative hidradenitis", "format": "in vivo, human", "design": "key to Rep (response of the individual patient): CR: complete remission; PR: partial remission", "experimental": "The efficacy of zinc gluconate in the treatment of suppurative hidradenitis was verified by the clinical observation performed on 20 patients, 16 of whom were monitored for a period of up to 24 months.\n20 patients, 14 women and 6 men, from 23 to 72 years old, whose history of the disease ranged from 6 to 13 years, were placed on 90 mg of zinc gluconate per day for a period of a few months to 3 years.\nIn 34% of the cases, the location of the lesions was inguinal, axillary in 24% of the cases, and on the buttocks in 17% of the cases. The other affected regions in 5% to 7% of the cases were the chest, the pubis or the perineum.\n“Dose 1” is the dose administered at the start of the treatment. “Dose 2” is the maintenance dose. The medical monitoring was generally from 4 to 8 months, and in a few cases it was extended beyond 12 months."}, "[6]": {"details": "of 20 patients, 90 mg zinc gluconate per day, monitoring for several months"}}, "note": "Values joined by “and” are separate entries in the source; they are usually repeats but may differ in a detail not shown here. Equal values may be shown once."}
{"molecule": "CC(=O)O[C@]1(C(C)=O)CC[C@H]2[C@@H]3C=C(Cl)C4=CC(=O)[C@@H]5C[C@@H]5[C@]4(C)[C@H]3CC[C@@]21C", "note": "[cyproterone acetate]", "values": [{"measurement": "efficacy", "setting": "suppurative hidradenitis [1]; 100 mg/day of cyproterone acetate, small number of patients", "result": "efficacy only at large doses"}, {"measurement": "outcome on dose reduction", "setting": "suppurative hidradenitis [1]; dose reduced to 50 mg", "result": "recurrence"}]}
{"molecule": "CC1=C(/C=C/C(C)=C/C=C/C(C)=C\\C(=O)O)C(C)(C)CCC1", "note": "[isotretinoin]", "values": [{"measurement": "results of treatment", "setting": "suppurative hidradenitis [2]", "result": "very mediocre results"}]}
{"molecule": "zinc gluconate", "values": [{"measurement": "observed side effects", "setting": "[3]", "result": "only digestive"}, {"measurement": "systemic toxicity", "setting": "[3]", "result": "no systemic toxicity to be feared"}, {"measurement": "tolerance", "setting": "[3]; i.e. 6 gel capsules containing a 15 mg dose", "result": "usually good"}, {"measurement": "probability of an acute intoxication", "setting": "[4]", "result": "zero"}, {"measurement": "patients for whom the treatment proved to be ineffective", "setting": "suppurative hidradenitis [5]; of 20 patients, 90 mg zinc gluconate per day", "result": "one"}, {"measurement": "patients showing a full remission of the disease", "setting": "suppurative hidradenitis [5]; [6]", "result": 9, "unit": "patients"}, {"measurement": "patients showing a full remission of the disease (percentage)", "setting": "suppurative hidradenitis [5]; [6]", "result": 45, "unit": "%"}, {"measurement": "patients showing a partial remission", "setting": "suppurative hidradenitis [5]; [6]", "result": 6, "unit": "patients"}, {"measurement": "patients showing a partial remission (percentage)", "setting": "suppurative hidradenitis [5]; [6]", "result": 30, "unit": "%"}, {"measurement": "efficacy in the treatment of suppurative hidradenitis", "setting": "suppurative hidradenitis [5]; oral, 60 to 120 mg per day attack treatment, 15 to 90 mg per day maintenance treatment", "result": "satisfactory efficacy"}, {"measurement": "Rep (response of the individual patient)", "setting": "suppurative hidradenitis [5]; patient (No. 1-20), oral, Dose 1 60-120 mg/day at start, Dose 2 maintenance, monitoring 3 to >12 months", "result": "PR (6×) and CR (9×) and ineff."}]}
